The numbers were not newly measured in patent publication US20060182828A1, “METHODS OF REDUCING LIPID PEROXIDATION AND ACHIEVING RELATED HEALTH BENEFITS BY THE ADMINISTRATION OF TOCOPHEROL AND SESAME LIGNANS” (priority 2005, published 2006), which cites them from elsewhere.

The subject of series [1] is LDL. The conditions noted are these: Cu-ascorbate induced.
Series [2] deals with LDL.
The conditions of series [3]: rats.
The subject of another series is mouse skin papillomas. To be noted: induced with 12-0-tetradecanoylphorbol 1 acetate.
The subject of series [4] is peroxisomal palmitoyl Co-A oxidation. To be noted: in vivo.
Series [5] relates to sterol regulatory element binding protein-1 (SREBP-1) m RNA. The conditions noted are these: 0.4% sesamin diet group.
The test system of a further series is heart disease. To be noted: supplementation with 30 IU to 100 IU.
The mark [6] stands for this setting: 32.4 then 64.8 mg, total of 8 weeks.
[7] abbreviates: hypercholesterolemic men, before.

For `Oc1cc2c(cc1[C@H]1OC[C@H]3[C@@H]1CO[C@@H]3c1ccc3c(c1)OCO3)OCO2` [sesaminol], in the series with LDL [1], the “lag time longer than tetrahydrocurcumin” value was 567% and the “lag time of LDL oxidation” value is 510 min. Also, in the series with LDL [2], the “formation of 4-hydroxy-2-nonenal (4-HNE), of control values” (shortened to “formation of 4-hydroxy-2-nonenal (4-HNE)”) is reported as 17% and the “formation of malondialdehyde (MDA), of control values” (“formation of malondialdehyde (MDA)” below) is recorded as 13%. Moreover, the “inhibited TBARS formation” value in the series on LDL [2] (0.1 micromolar concentration) was 82.8%. In addition, the “protection against TBARS formation” value with LDL [2] (one micromolar concentration) is listed as 100%. In addition, the half-maximal inhibitory concentration (IC50) (usually the concentration that gives 50% inhibition) in the series on LDL [2] (read-out: IC50, lipid peroxidation of LDL) is 36 ± 10 nM.
As for `CC(C)(Sc1cc(C(C)(C)C)c(O)c(C(C)(C)C)c1)Sc1cc(C(C)(C)C)c(O)c(C(C)(C)C)c1` [probucal], in the series with LDL [2], the “formation of 4-hydroxy-2-nonenal (4-HNE)” value was “absolutely no effect” and the “formation of malondialdehyde (MDA)” value is on record as “absolutely no effect”.
`Cc1c(O)cc2c(c1C)O[C@](C)(CCC[C@H](C)CCC[C@H](C)CCCC(C)C)CC2` [gamma-tocopherol]: the “gamma tocopherol level in serum” value in series [3] (serum) was 3 micromoles per liter. The “gamma tocopherol levels in tissues (liver, kidney, brain)” value in series [3] (tissue) is given as 3 nmol per gram.
Regarding `Oc1ccc(C=Cc2cc(O)cc(O)c2)cc1` [resveratrol], the “reduction of formation of mouse skin papillomas” value in the series with mouse skin papillomas is reported as 60%.
Regarding `c1cc2c(cc1[C@H]1OC[C@H]3[C@@H]1CO[C@@H]3c1ccc3c(c1)OCO3)OCO2` [episesamin], in series [4], the “increase of peroxisomal palmitoyl Co-A oxidation rate” value is 5.1 fold.
On to `Cc1c(C)c2c(c(C)c1O)CC[C@@](C)(CCC[C@H](C)CCC[C@H](C)CCCC(C)C)O2` [alpha-tocopherol], for which, in the series with LDL [2], the “formation of 4-hydroxy-2-nonenal (4-HNE)” value is recorded as “absolutely no effect” and the “formation of malondialdehyde (MDA)” value was “absolutely no effect”.
Regarding `Oc1ccc2c(c1)OCO2` [sesamol], the “reduction of formation of mouse skin papillomas” value in the series on mouse skin papillomas was 50%.
As to `c1cc2c(cc1[C@H]1OC[C@H]3[C@@H]1CO[C@@H]3c1ccc3c(c1)OCO3)OCO2` [sesamin], the “SREBP-1 m RNA level relative to rats fed a sesamin-free diet” value in series [5] is “one-half”. Further, under setting [6], the “LDL cholesterol, after” value was 156.4; the “apolipoprotein B, after” value is given as 168.5; the “changes in HDL cholesterol” value is on record as “no changes”; the changes in triglycerides entry is given as “no changes”. The “mean total cholesterol, after” value under setting [6] is 248.3. Moreover, under setting [7], the “LDL cholesterol, before” value is recorded as 187.1; the “apolipoprotein B, before” value is 188.8; the “mean total cholesterol, before” value is 272.0. The “increase of peroxisomal palmitoyl Co-A oxidation rate” value in series [4] is 1.6 fold.
Regarding vitamin E, the “lowers the risk of heart disease” value in the series on heart disease is 41%.
